Test results from patent US20230218654A1, “COMPOSITIONS AND METHODS FOR TREATING HYPERGLYCEMIA IN TYPE-2 DIABETES” (The Board of Regents of the university of Oklahoma, priority 2020, published 2023).

Columns and labels:
[1] = system: male C57BL6/J mice; experiment: Plasma/serum insulin and c-peptide after acute neddylation inhibitor treatment; type: in vivo; settings: 6 h fast
Description: Male C57BL6/J mice on chow diet were treated with 45 mg/kg TAS4464 via subcutaneous injection at 9 am. Mice were then fasted for 6 hours and serum insulin was measured. Blood samples were collected at 0 min and 120 min and used for insulin measurement (n=4). Left-hand bars are controls. Right-hand bars are TAS4464 treatments.
Male C57BL6/J mice on Western diet were treated with 15 mg/kg TAS4464 via subcutaneous injection at 9 am. Mice were then fasted for 6 hours and serum c-peptide were measured (n=5).
Male C57BL6/J mice on chow diet were treated with 60 mg/kg MLN4924 via subcutaneous injection at 9 am. Mice were then fasted for 6 hours and serum c-peptide were measured (n=8)
Aspartate aminotransferase (AST) and alanine aminotransferase (ALT) assay kits were purchased from Pointe Scientific (Canton, MI). Free fatty acid assay kit was purchased from Biovision Inc. (Milpitas, CA). Insulin ELISA kit was purchased from Crystal Chem Inc. (Elk Grove Village, IL).
A hyperinsulinemic-euglycemic clamp study was conducted in which obese mice were treated with vehicle or MLN4924.

[2] = system: AML12 mouse hepatocytes; experiment: Western blot of insulin signaling and cullin neddylation in AML12 cells; type: cell-based
Description: MLN4924 increases IRS protein and AKT activation in the presence of insulin. Mouse AML 12 hepatocytes were serum starved for 16 h. Cells were then pre-treated with MLN4924 for 1 h followed by 100 nM insulin stimulation for 4 h. Western blot was then performed to evaluate insulin signaling activation.
AML 12 cells were serum starved for 16 h. Cells were then pre-treated with 500 nM MLN4924 or vehicle (DMSO) for 1 h, followed by 100 µg/ml cycloheximide (CHX) and 100 nM insulin treatment.
AML12 cells were serum starved for 16 h. Cells were then pre-treated with 500 nM MLN4924 for 1 h followed by 100 nM insulin stimulation in time course.
FIG. 18A is a Western blot analysis showing that MLN4924 enhances hepatocyte insulin responsiveness (signaling) by delaying feedback IRS degradation. AML12 cells were serum starved for 16 h. Cells were then pre-treated with MLN4924 for 1 h followed by insulin stimulation for 4 h.
FIG. 18D is a Western blot analysis of insulin signaling in AML12 cells serum starved for 16 h, then pre-treated with 500 nM MLN4924 for 1 h followed by 100 nM insulin stimulation in time course.
FIG. 18E is a Western blot analysis of AML12 cells serum starved for 16 h then pre-treated with 500 nM MLN4924 or vehicle (DMSO) for 1 h, followed by 100 µg/ml cycloheximide (CHX) and 100 nM insulin treatment. Cells were collected at the indicated time for Western blotting.
FIG. 18F is a Western blot analysis of insulin signaling in AML12 cells serum starved for 16 h then pre-treated with 100 nM rapamycin and 500 nM MLN4924 as indicated for 1 h followed by additional 2 h incubation in the presence or absence of 100 nM insulin. Blots are representative of 2-4 independent experiments.
(§1) FIG. 20 is a Western blot analysis showing that MLN4924 enhances hepatocyte insulin responsiveness in cells treated with wortmannin by delaying feedback IRS degradation (related to FIG. 18A). AML12 cells were serum starved for 16 h then pre-treated with 1 µM wortmannin (Wort) and 500 nM MLN4924 as indicated for 1 h followed by additional 2 h incubation in the presence or absence of 100 nM insulin. Blots are representative of 2 independent experiments.
as §1, with “21” for “20”, “Torin 1” for “wortmannin”, “250 nM Torin1” for “1 µM wortmannin (Wort)”
(§2) MLN4924 and TAS4464 were purchased from MedChemExpress (MCE, Monmouth Junction, NJ). For cell treatment, MLN4924 and TAS4464 were dissolved in DMSO. Cells were serum starved overnight and then treated with MLN4924, TAS4464 and/or insulin as indicated. For injection in mice, MLN4924 and TAS4464 were first dissolved in DMSO, which was further suspended in 10% (2-hydroxypropyl)-β-cyclodextrin (Sigma, St. Louis, MO). The final solution contains 1% DMSO. The subcutaneous injection volume is 200 µl/mouse.
Protein lysates were prepared in RIPA buffer containing 1% SDS and protease inhibitors on ice for 1 h followed by brief sonication. After centrifugation, supernatant was used for SDS-PAGE and immunoblotting.
AML12 cells were a generous gift from Dr. Yanqiao Zhang (Northeast Ohio Medical University). AML12 cells were cultured in DMEM medium supplemented with a mixture of insulin-transferrin-selenium (#41400-045, ThermoFisher, Waltham, MA). For experiments, cells were cultured in serum free medium overnight before various treatments were initiated. The siGENOME SMARTpool siRNA and siControl were purchased from Dharmacon, Inc. (Lafayette, CO). The siRNA was transfected with Lipofectamine RNAiMAX reagent in a final concentration of 25 nM recommended by the manufacturer. […]

[3] = system: insulin resistant and obese male C57BL/6J mice; experiment: Acute TAS4464 treatment of obese, insulin resistant WD-fed mice; type: in vivo; settings: WD 8 weeks
Description: Mice were fed WD for 8 weeks to render them insulin resistant and obese. Mice were then treated with 45 mg/kg TAS4464 or vehicle once at 5 pm on day 1 and once at 9 am on day 2. Body weight and blood glucose were measured at 3 pm on day 2.
Mice were fed WD for 8 weeks, after which the mice were injected with vehicle or 45 mg/kg TAS4464 subcutaneously at 5 pm on day 1 and 9 am on day 2. Mice were fasted from 9 am to 3 pm on day 2 and blood glucose was measured. Results are expressed as mean ± SEM. […]. “*”, p < 0.05, vs. Vehicle.
as §2
Treatment of obese mice with TASS4464 reduced the blood glucose to ~100 mg/dl.

[4] = 1 µM wortmannin or 250 nM Torin1, 100 nM insulin

| SMILES | serum c-peptide concentration ([1]; Western diet, 15 mg/kg SQ at 9 am) | serum insulin concentration ([1]; chow diet, 45 mg/kg SQ at 9 am) | IRS protein ([2]; TAS4464 increasing doses, 5 h) | neddylated cullin 1 ([2]; TAS4464 increasing doses, 5 h) | total neddylated cullins ([2]; TAS4464 increasing doses, 5 h) | blood glucose after 6-hour fast ([3]; 45 mg/kg SQ at 5 pm day 1 and 9 am day 2) | blood glucose (in words) ([3]; 45 mg/kg SQ twice, 6 h fast) | downstream AKT activation [2, 4] | downstream mTOR activation [2, 4] |
| --- | --- | --- | --- | --- | --- | --- | --- | --- | --- |
| CCOc1cccc(F)c1C#Cc1cn([C@@H]2O[C@H](CNS(N)(=O)=O)[C@@H](O)[C@H]2O)c2ncnc(N)c12 [TAS4464, 7H-Pyrrolo[2,3-d]pyrimidin-4-amine, 7-[5-[(aminosulfonyl)amino]-5-deoxy-beta-D-ribofuranosyl]-5-[2-(2-ethoxy-6-fluorophenyl)ethynyl]-] | elevated serum c-peptide concentration | increases serum insulin concentration | increased IRS protein | significantly inhibited | significantly inhibited | ~ 100 mg/dl | acutely reduced blood glucose | – | – |
| CCC(=O)N1CCN(c2ccc(-n3c(=O)ccc4cnc5ccc(-c6cnc7ccccc7c6)cc5c43)cc2C(F)(F)F)CC1 [Torin 1] | – | – | – | – | – | – | – | decreased downstream AKT activation | blocked downstream mTOR activation |
